# Patent publication US20230173082A1, “ANTIBACTERIAL PRODUCTS” (UNIVERSITY OF LINCOLN, priority 2014, published 2023)
# Values joined by “and” are separate entries in the source; they are usually repeats but may differ in a detail not shown here. Identical values can stand only once. Like-named read-outs stand apart in the source and are kept apart here.
# What was measured:
# E. Coli 25922 = assay: MIC testing (MIC/MBC), broth dilution; format: cell-based; conditions: delivery agents with Moenomycin A at 1:2 ratio
# Experimental: (§1) • The bacteria were grown in 5 ml of Mueller Hinton Broth overnight at 37° C. • The inhibitor was tested on its own or in conjunction with a cell penetrating peptide (CPP). • When tested with a CPP they were incubated together at room temperature for 1 hour before use. • Delivery agents (Compound 5, Compound 6, and 7) were used at a 1:2 ratio.
# B. Subtilis 2410 = assay: MIC testing (MIC/MBC), broth dilution; format: cell-based; conditions: delivery agents with Moenomycin A at 1:2 ratio
# Experimental: as §1
# K. Pneumonia 700603 = assay: MIC testing (MIC/MBC), broth dilution; format: cell-based; conditions: runs A, B, C, delivery agents with Moenomycin A at 1:2 ratio; for MIC: 24 hours at 37° C.
# Experimental: as §1
# A. Baumannii 19606 = assay: MIC testing (MIC/MBC), broth dilution; format: cell-based; conditions: runs A, B, C, delivery agents with Moenomycin A at 1:2 ratio; for MIC: 24 hours at 37° C.
# Experimental: as §1
# P. Aeruginosa 27853 = assay: MIC testing (MIC/MBC), broth dilution; format: cell-based; conditions: runs A, B, C, delivery agents with Moenomycin A at 1:2 ratio; for MIC: 24 hours at 37° C.
# Experimental: as §1
# HeLa cells = assay: In vitro toxicity testing in HeLa cells; format: cell-based
# tumor cell line 786-O = assay: In vitro cell viability in tumor cell line 786-O; format: cell-based; conditions: initial in vitro testing
# mammalian cells [1] = tested on: mammalian cells
# mammalian cells [2] = assay: Mammalian cytotoxicity (cell type not stated)
# [3] = Escherichia coli, read-out: MBC
# [4] = Escherichia coli, read-out: MIC
# [5] = Bacillus subtilis, read-out: MBC
# [6] = Bacillus subtilis, read-out: MIC
# [7] = Acinetobacter baumannii, read-out: MIC
# [8] = Pseudomonas aeruginosa, read-out: MIC
# [9] = Pseudomonas aeruginosa, read-out: MBC
SMILES,MBC (E. Coli 25922; [3]) [µg/mL],MIC (E. Coli 25922; [4]) [µg/mL],MBC (B. Subtilis 2410; [5]) [µg/mL],MIC (B. Subtilis 2410; [6]) [µg/mL],MIC (K. Pneumonia 700603),MBC (K. Pneumonia 700603),MIC (A. Baumannii 19606; [7]) [µg/mL],MBC (A. Baumannii 19606),MIC (P. Aeruginosa 27853),MBC (P. Aeruginosa 27853),MIC (P. Aeruginosa 27853; [8]) [µg/mL],MBC (P. Aeruginosa 27853; [9]) [µg/mL],MIC (A. Baumannii 19606),other results
"CC1(C)S[C@@H]2[C@H](NC(=O)[C@H](N)c3ccccc3)C(=O)N2[C@H]1C(=O)O [Ampicillin, reference compound]",8,8,256,128,Growth in all wells,Growth in all wells,128,Growth in all wells,Growth in all wells,Growth in all wells,,,,
CCCCCCCCCCCCCCCCCC(=O)OC(COCC(COC(=O)NCCCN(C)CCCN)OC(=O)NCCCN(C)CCCN)COCC(COC(=O)NCCCN(C)CCCN)OC(=O)NCCCN(C)CCCN (centres unmarked) [Compound 5],128,64,32,32,64 µg/mL,64 µg/mL,,,,,256,256,,"MIC (K. Pneumonia 700603; Klebsiella pneumoniae, 24 h, read-out: MIC): 128 µg/mL; MBC (K. Pneumonia 700603; Klebsiella pneumoniae, read-out: MBC): 128 µg/mL"
CCCCCCCCCCCCCCCCCC(=O)OC(COC(COCC(COC(=O)NCCCN(C)CCCN)OC(=O)NCCCN(C)CCCN)COCC(COC(=O)NCCCN(C)CCCN)OC(=O)NCCCN(C)CCCN)COC(COCC(COC(=O)NCCCN(C)CCCN)OC(=O)NCCCN(C)CCCN)COCC(COC(=O)NCCCN(C)CCCN)OC(=O)NCCCN(C)CCCN (centres unmarked) [Compound 6],,256,32,32,,,256,,,,256,256,,"concentration at which toxic (HeLa cells): 20 µg/mL; effect on cell viability (tumor cell line 786-O): did not affect the cell viability; MBC (A. Baumannii 19606; Acinetobacter baumannii, read-out: MBC): 256 µg/mL"
"N=C(N)NCCNC(=O)CCN(CCC(=O)NCCNC(=N)N)CCN(CCC(=O)NCCNC(=N)N)CCC(=O)NCCNC(=N)N [Compound 7, 3,3’,3”,3”’-(Ethane-1,2-Divlbis(Azanetrivl)) Tetrakis(N-(2-Guanidinoethyl)Propanamide)]",,,,,Growth in all wells,Growth in all wells,,Growth in all wells,Growth in all wells,Growth in all wells,,,Growth in all wells,
C#CC(=O)N[C@@H](CCCNC(=N)N)C(=O)N[C@@H](CCCNC(=N)N)C(=O)N[C@@H](CCCNC(=N)N)C(=O)N[C@@H](CCCNC(=N)N)C(=O)N[C@@H](CCCNC(=N)N)C(=O)N[C@@H](CCCNC(=N)N)C(=O)N[C@@H](CCCNC(=N)N)C(=O)N[C@@H](CCCNC(=N)N)C(N)=O [Compound 8],,,,,,,,,,,,,,concentration up to which no toxicity was observed (mammalian cells [1]): up to 110 µg/mL
"C=C(C/C=C(\C)CCC=C(C)C)CCC(C)(C)/C=C/CC/C(C)=C/CO[C@@H](COP(=O)(O)O[C@H]1O[C@H](C(N)=O)[C@@](C)(O)[C@H](OC(N)=O)[C@H]1O[C@@H]1O[C@H](CO[C@@H]2O[C@H](CO)[C@@H](O)[C@H](O)[C@H]2O)[C@@H](O[C@@H]2O[C@H](C)[C@@H](O[C@@H]3O[C@H](C(=O)NC4=C(O)CCC4=O)[C@H](O)[C@H](O)[C@H]3O)[C@H](O)[C@H]2NC(C)=O)[C@H](O)[C@H]1NC(C)=O)C(=O)O [Moenomycin A, reference compound]",,,,,64 µg/mL,128 µg/mL,,8 µg/mL,256 µg/mL,Growth in all wells,,,4 µg/mL and 8 µg/mL,concentration up to which no toxicity was observed (mammalian cells [2]): up to 10 mg/mL; MBC (E. Coli 25922): 128 µg/mL; MIC (E. Coli 25922): 32 µg/mL; MBC (B. Subtilis 2410): Growth in all wells; MIC (B. Subtilis 2410): 256 µg/mL
